pIC50: −log10 of the molar value.
Columns and labels:
HeLa cells = test: MTS cell proliferation assay in asynchronously growing HeLa cells; format: cell-based, human; settings: treated 2 days
Plk1 = settings: read-out: IC50 against Plk1; cited from earlier work

PLHST
inhibition of cell proliferation (MTS) (HeLa cells): failed to show any detectable level of cell cytotoxicity

PLH*SpT
pIC50 (Plk1): 7.77

— PMC10411393 (Journal of medicinal chemistry, 2022)
